Results from patent publication US20190240292A1, “METHODS OF ADMINISTERING HEPCIDIN” (priority 2016, published 2019).

Key:
[1] = tested on: transferrin saturation (TSAT); experiment: Transferrin saturation (TSAT) in patients after hepcidin (Example 6); format: in vivo, human; settings: for Transferrin saturation - percent change from baseline: eight days post administration
Protocol: Transferrin saturation (TSAT) was measured in patients described in Example 1. TSAT indicates the percent of iron-binding sites of transferrin that are occupied by iron, making TSAT an important tool in diagnosis and monitoring of blood disorders and disease. A one milligram bolus of hepcidin was administered to sickle cell disease patients 1001 and 1002 and hereditary hemochromatosis patient 1003, while patients 2001 and 2002 were administered 5 mg of hepcidin each. TSAT levels were measured eight days post hepcidin administration.

serum iron concentration = experiment: Serum iron levels in patients after hepcidin (Example 7); format: in vivo, human
Protocol: Serum iron levels were measured in six patients with sickle cell disease patients and hereditary hemochromatosis patients post administration of hepcidin. Serum iron levels were measured prior to hepcidin administration (baseline) as well as post hepcidin administration at 2 hours, 4 hours, 8 hours, 24 hours, 48 hours, and […]. Patients were divided into two cohorts, cohort 1 was administered 1 mg of hepcidin and cohort 2 was administered 5 mg of hepcidin. Cohort 1 comprised sickle cell patients 1001 and 1002 as well as hereditary hemochromatosis patient 1003, while cohort 2 comprised hereditary hemochromatosis patients 2001, 2002, and 2004. Percent change of serum iron concentration for individual patients and average percent changes for both cohorts are shown in FIGS. 6 and 7. On average, hepcidin administration decreased serum iron concentration over an 8 day period by 35-40% in both cohorts.

serum iron levels [2] = experiment: Subcutaneous hepcidin, effect on serum iron levels in mice (Example 1); format: in vivo; settings: 50 μg subcutaneous, p<0.05
Excerpt: A study was designed to evaluate the effect of subcutaneous doses of hepcidin on serum iron levels in mice (n=6-7/group).

[3] = based on animal data
serum iron levels [4] = experiment: Subcutaneous hepcidin 1, 5, 10, 50 mg, effect on serum iron levels in normal rats (Example 3); format: in vivo
Protocol: A study was designed to evaluate doses of 1, 5, 10, and 50 mg of hepcidin delivered subcutaneously and their effect on serum iron levels in normal rats (n=7/group). […] Tmax and Cmax were reached between 1 and 2 hours post dose for all dose groups, but the uptake between the high and mid dose were very similar at these time points. […] In the 5 mg dose, serum iron levels returned to pre-dose levels at 48 hours post dose.

[5] = Expanded acute study (NOAEL), single subcutaneous dose of hepcidin in dogs (Example 4); format: in vivo; settings: for dose at which mixed cell infiltration in the administration site was found (microscopic): males and females
Protocol: Increased thickness in the administration site was observed on Day 4 at 50 mg/kg and on Day 15 at ≥25 mg/kg. Microscopic findings on Day 4 consisted of mixed cell infiltration in the administration site in males and females at ≥25 mg/kg, while on Day 15, microscopic findings at the administration site included mixed cell infiltration in males and females at ≥5 mg/kg, fibrosis in males at ≥25 mg/kg and in females at ≥5 mg/kg, and cystic space in males at 50 mg/kg and in females at ≥25 mg/kg.

[6] = Expanded acute study (NOAEL), hepcidin SC in Sprague Dawley rats (Example 4)
Protocol: A study was designed to evaluate doses of 5, 25, and 50 mg/kg of hepcidin (human equivalent dose of 0.8, 4, 8 mg/kg, respectively), delivered SC to Sprague Dawley rats (n=9/sex/group).

serum ferritin = experiment: Serum ferritin in sickle cell disease and hereditary hemochromatosis patients after hepcidin (Example 5); format: in vivo, human; settings: 8 days post administration
Protocol: Hepcidin administration lowered ferritin blood levels in sickle cell patients with high baseline ferritin. A 1 milligram bolus of hepcidin was administered subcutaneously to two male patients with sickle cell disease (patients 1001 and 1002). Serum ferritin concentrations were measured at baseline as well as eight days post administration of hepcidin. Ferritin blood levels were lower 8 days post hepcidin administration in both patients (FIG. 1). Percent changes in ferritin blood levels for patients 1001 and 1002 were −45% and −61%, respectively (FIG. 3).
Hepcidin was administered to three hereditary hemochromatosis patients with normal baseline serum ferritin concentrations. Hereditary hemochromatosis patient 1003 was administered 1 mg of hepcidin, while two other patients (2001 and 2002) were administered 5 mg of hepcidin. Ferritin blood levels were measured in all patients eight days post hepcidin administration (FIG. 2). Percent change in ferritin blood levels among patients 1003, 2001, and 2002 were 25%, −19%, and 18%, respectively (FIG. 3).

serum iron levels [7] = experiment: Subcutaneous hepcidin 50, 100, 200 μg, effect on serum iron levels in mice (Example 2); format: in vivo; settings: for serum iron levels compared to vehicle: p<0.01
Protocol: A study was designed to evaluate doses of 50, 100, and 200 μg of hepcidin delivered subcutaneously and their effect on serum iron levels in mice (n=7/group). […] Conversely, 50 μg and 100 μg doses were elevated (p<0.01) compared to the vehicle at 24 hours post dose. The elevated levels of serum iron could be due to the system's reaction to the clearance of hepcidin. […] Mortality was likely related to the stress of the blood collection. Serum iron levels normalized 72 hours post dose.

[8] = patient 1001, sickle cell disease, 1 mg
[9] = patient 1002, sickle cell disease, 1 mg
[10] = patient 1003, hereditary hemochromatosis, 1 mg
[11] = patient 2001, hereditary hemochromatosis, 5 mg
[12] = patient 2002, hereditary hemochromatosis, 5 mg
[13] = Sprague Dawley rats, 5, 25 and 50 mg/kg SC

CC[C@H](C)[C@@H]1NC(=O)[C@@H](NC(=O)[C@@H](NC(=O)[C@@H]2CCCN2C(=O)[C@H](Cc2ccccc2)NC(=O)[C@H](Cc2c[nH]cn2)NC(=O)[C@@H](NC(=O)[C@@H](N)CC(=O)O)[C@@H](C)O)[C@@H](C)CC)CSSC[C@@H](C(=O)N[C@@H](CCCCN)C(=O)N[C@H](C(=O)O)[C@@H](C)O)NC(=O)[C@@H]2CSSC[C@@H]3NC(=O)[C@@H]4CSSC[C@H](NC(=O)[C@H](Cc5ccccc5)NC1=O)C(=O)N[C@@H](CSSC[C@H](NC(=O)[C@H](CCCCN)NC(=O)[C@H](CO)NC(=O)[C@H](CCCNC(=N)N)NC(=O)[C@H](Cc1c[nH]cn1)NC3=O)C(=O)NCC(=O)N[C@@H](CCSC)C(=O)N2)C(=O)NCC(=O)N4 [hepcidin]
TSAT at day eight versus baseline ([1]; all patients (1001, 1002, 1003 at 1 mg; 2001, 2002 at 5 mg)): percent decrease
Transferrin saturation - percent change from baseline [1, 8]: −19%
Transferrin saturation - percent change from baseline [1, 9]: −62%
Transferrin saturation - percent change from baseline [1, 10]: −27%
Transferrin saturation - percent change from baseline [1, 11]: −26%
Transferrin saturation - percent change from baseline [1, 12]: −40%
average decrease of serum iron concentration over an 8 day period (serum iron concentration; both cohorts (cohort 1: 1 mg; cohort 2: 5 mg)): 35-40%
efficacy in human subjects (serum iron concentration; doses of 1 mg and 5 mg hepcidin): display efficacy
Serum iron concentration, maximum observed percentage change from baseline (serum iron concentration; [8]): −6%
Serum iron concentration, percentage change from baseline 8 days after administration of hepcidin (serum iron concentration; [8]): −4%
Serum iron concentration, maximum observed percentage change from baseline (serum iron concentration; [9]): −69%
Serum iron concentration, percentage change from baseline 8 days after administration of hepcidin (serum iron concentration; [9]): −69%
Serum iron concentration, maximum observed percentage change from baseline (serum iron concentration; [10]): −37%
Serum iron concentration, percentage change from baseline 8 days after administration of hepcidin (serum iron concentration; [10]): −37%
Serum iron concentration, maximum observed percentage change from baseline (serum iron concentration; [11]): −53%
Serum iron concentration, percentage change from baseline 8 days after administration of hepcidin (serum iron concentration; [11]): −40%
Serum iron concentration, maximum observed percentage change from baseline (serum iron concentration; [12]): −24%
Serum iron concentration, percentage change from baseline 8 days after administration of hepcidin (serum iron concentration; [12]): −24%
Serum iron concentration, maximum observed percentage change from baseline (serum iron concentration; patient 2004, hereditary hemochromatosis, 5 mg): −35%
decrease in serum iron levels compared to vehicle (average) (serum iron levels [2]; 4 hours post dose): 40%
decrease in serum iron levels compared to vehicle (average) (serum iron levels [2]; 24 hours post dose): 15%
dose that may cause adverse effects in humans [3]: about 200 mg
time post dose at which serum iron levels returned to pre-dose levels (serum iron levels [4]; 5 mg subcutaneous): 48 h
return of serum iron levels to pre-dose levels (serum iron levels [4]; 10 mg and 50 mg subcutaneous, 72 hours post dose): did not return to pre-dose levels
effect on serum iron levels at 72 hours (serum iron levels [4]; 50 mg subcutaneous): still demonstrated an effect
serum iron levels (serum iron levels [4]; subcutaneous, all dose levels (1, 5, 10, 50 mg)): significant decrease
time post dose of lowest serum iron concentrations (serum iron levels [4]; subcutaneous, all three doses): 4 h
lethargy (serum iron levels [4]; subcutaneous, any dose level): No lethargy was observed
NOAEL at 15 Day ([5]; both sexes, dog, in vivo, sc, dogs, single subcutaneous dose): 5 mg/kg/day
other adverse reactions ([5]; dogs, 5, 25 and 50 mg/kg single subcutaneous dose): hunched posture, soft feces, gross pathology finding of “thick,” and subcutaneous fibrosis, mixed cell infiltration, and cysts present at recovery period
dose at which increased thickness in the administration site was observed ([5]; dogs, Day 4): 50 mg/kg
dose at which increased thickness in the administration site was observed ([5]; dogs, Day 15): ≥ 25 mg/kg
dose at which cystic space at the administration site was found (microscopic) ([5]; dogs, females, Day 15): ≥ 25 mg/kg
dose at which fibrosis at the administration site was found (microscopic) ([5]; dogs, females, Day 15): ≥ 5 mg/kg
dose at which mixed cell infiltration in the administration site was found (microscopic) ([5]; dogs, Day 4): ≥ 25 mg/kg
dose at which mixed cell infiltration in the administration site was found (microscopic) ([5]; dogs, Day 15): ≥ 5 mg/kg
dose at which cystic space at the administration site was found (microscopic) ([5]; dogs, males, Day 15): 50 mg/kg
dose at which fibrosis at the administration site was found (microscopic) ([5]; dogs, males, Day 15): ≥ 25 mg/kg
neutrophils and fibrinogen levels ([5]; dogs, up to Day 4, ≥25 mg/kg/day dose groups, not considered serious): temporary increases
adverse effects [6, 13]: No unexpected adverse effects were observed
food consumption and body weight gain [6, 13]: non-adverse, dose-independent, reductions
injection site finding [6, 13]: induration
reticulocytes and iron concentration [6, 13]: dose-dependent reversible decreases
unsaturated iron binding capacity [6, 13]: increased
average serum iron levels compared to vehicle and pre-dose levels ([6]; Sprague Dawley rats, 5, 25 and 50 mg/kg SC, all doses): significantly decreased
time post dose of lowest serum iron level ([6]; Sprague Dawley rats, 5, 25 and 50 mg/kg SC, all three doses): 4 h
NOAEL ([6]; both, Sprague Dawley, rat, in vivo, sc): 50 mg/kg/day
percent change in ferritin blood levels (serum ferritin; patient 1001, sickle cell disease, 1 mg subcutaneous bolus): −45%
percent change in ferritin blood levels (serum ferritin; patient 1002, sickle cell disease, 1 mg subcutaneous bolus): −61%
percent change in ferritin blood levels (serum ferritin; patient 1003, hereditary hemochromatosis, normal baseline ferritin, 1 mg): 25%
percent change in ferritin blood levels (serum ferritin; patient 2001, hereditary hemochromatosis, normal baseline ferritin, 5 mg): −19%
percent change in ferritin blood levels (serum ferritin; patient 2002, hereditary hemochromatosis, normal baseline ferritin, 5 mg): 18%
ferritin blood levels versus baseline (serum ferritin; sickle cell disease patients 1001 and 1002 (high baseline ferritin), 1 mg subcutaneous bolus): lower
serum iron levels compared to vehicle (serum iron levels [7]; mice, 50 μg and 100 μg subcutaneous, 24 hours post dose): elevated
serum iron levels compared to vehicle (serum iron levels [7]; mice, 50, 100 and 200 μg subcutaneous, 4 hours post dose): significant decrease
time post dose at which serum iron levels normalized (serum iron levels [7]; mice, subcutaneous): 72 h
mortality (serum iron levels [7]; mice, following the 4-hour blood collection, likely related to stress of blood collection): One mouse died
